# Experimental data: ChEMBL document CHEMBL5113371, “Lipolytic enzymes inhibitors: A new way for antibacterial drugs discovery” (Eur J Med Chem, 2021)
# Legend:
# [1] = test system: Mycobacterium tuberculosis H37Rv; test: Antibacterial activity against Mycobacterium tuberculosis H37Rv expressing GFP infected in mouse Raw264.7 cells incubated for 5 days by SYTO 60 staining method; format: functional, Mycobacterium tuberculosis variant bovis
# [2] = test system: Mycobacterium tuberculosis H37Rv; test: Antibacterial activity against Mycobacterium tuberculosis H37Rv expressing GFP incubated for 7 days; format: functional, Mycobacterium tuberculosis variant bovis
# [3] = test system: Mycobacterium tuberculosis variant bovis; test: Antibacterial activity against VLDL-treated Mycobacterium bovis BCG assessed as level of intrabacterial lipid inclusions profile relative to control; format: functional
# [4] = Mycobacterium tuberculosis variant bovis, time 5.0 day
Compound,"MIC50 ([1]; 120 h, time 5 day)","MIC50 ([2]; 168 h, time 7 day)",further results
CCCCCCCCCC[C@@H]1CC[P@@](=O)(OC)OC(C)=C1C(=O)OC,4.5 µM,,
CCCCCCCCCC[C@H]1CC[P@@](=O)(OC)OC(C)=C1C(=O)OC,3.1 µM,16.6 µM,
CCCCCCCCCCCC[C@H]1CC[P@@](=O)(OC)OC(C)=C1C(=O)OC,,> 100 µM,
CCCCCCCCCCCC[C@@H]1CC[P@@](=O)(OC)OC(C)=C1C(=O)OC,4 µM,40.4 µM,
CCCCCCCCCCCCCCCCO[P@]1(=O)OC[C@H]2COC(=O)C2=C(C)O1,,1.7 µM,"MIC50 [1, 4]: NE"
CCCCCCCCCCCCCCCCOP1(=O)OCCC(C(=O)OC)=C(C)O1 (centres undefined),,0.5 µM,"MIC50 [1, 4]: NE"
CCCCCCCCCCCCCCCCO[P@]1(=O)OC[C@@H]2COC(=O)C2=C(C)O1,,,"MIC50 [1, 4]: NE"
COc1nn(-c2cccc(Oc3ccccc3)c2)c(=O)o1,,,Activity [3]: 90%
O=c1oc(OCCOCc2ccccc2)nn1-c1ccc(Oc2ccccc2)cc1,3.5 µM,> 50 µM,
CO[C@H]1/C=C/O[C@@]2(C)Oc3c(C)c(O)c4c(O)c(c(/C=N/N5CCN(C)CC5)c(O)c4c3C2=O)NC(=O)/C(C)=C\C=C\[C@H](C)[C@H](O)[C@@H](C)[C@@H](O)[C@@H](C)[C@H](OC(C)=O)[C@@H]1C [RIFAMPIN],2.9 µM,0.01 µM,
CC(C)COc1nn(-c2ccccc2)c(=O)o1,17.1 µM,> 50 µM,
CCCCCCOc1nn(-c2ccccc2)c(=O)o1,,44.6 µM,"MIC50 [1, 4]: NE"
O=c1oc(OCCOCc2ccccc2)nn1-c1ccccc1,,30.8 µM,"MIC50 [1, 4]: NE"
NNC(=O)c1ccncc1 [ISONIAZID],1.2 µM,1.2 µM,
CC(C)COc1nn(-c2ccc(Oc3ccccc3)cc2)c(=O)o1,8.5 µM,32 µM,
CCCCCCOc1nn(-c2ccc(Oc3ccccc3)cc2)c(=O)o1,9.5 µM,> 50 µM,
CCCCC[C@H]1CC[P@@](=O)(OC)OC(C)=C1C(=O)OC,,,"MIC50 ([2]; Mycobacterium tuberculosis variant bovis, time 7.0 day): NE"
